EPA's ToxValDB 9.5 (doi:10.2903/j.efsa.2008.137r)
In brackets after ≈: the same amount, converted by molar mass.

Columns and labels:
Pimephales promelas = conditions: chronic/long-term; duration: 278 days; growth
Canidae = conditions: chronic; duration: 52 weeks; oral; Dog Other; body weight
Bibionidae = conditions: chronic/long-term; duration: 28 days; seedling emergence
Mus musculus = conditions: chronic; duration: 2 years; organ weight
Rattus norvegicus = conditions: for NOEC: chronic, M
Oryctolagus sp. = conditions: developmental; development
Daphnia magna = conditions: chronic/long-term; duration: 21 days; growth
Lepomis macrochirus = conditions: acute; duration: 96 hours; mortality
Apis mellifera = conditions: acute; duration: 48 hours; oral; unspecified; mortality
Anas platyrhynchos = conditions: short-term; oral; feed; mortality
Folsomia candida = conditions: chronic/long-term; duration: 28 days
Aphidius rhopalosiphi = assay: LR50; higher = less toxic; conditions: not reported; mortality

Compound: O=[N+]([O-])c1cc(C(F)(F)F)c(Cl)c([N+](=O)[O-])c1Nc1ncc(C(F)(F)F)cc1Cl [Fluazinam]
- NOEC (Pimephales promelas): 0.0029 mg/L
- NOAEL (Canidae): 1 mg/kg-day
- NOEC (Bibionidae): 0.00625 mg/L
- NOAEL (Mus musculus): 1.12 mg/kg-day
- LC50 (Tagia sp.; acute, duration: 14 days, mortality): > 1000 mg/kg
- NOEC (Tagia sp.; chronic/long-term, duration: 28 days): 0.35 mg/kg
- LD50 (Rattus norvegicus; acute, F, mortality): 4100 mg/kg-day
- NOEC (Rattus norvegicus): 5 mg/kg-day
- NOEC (Rattus norvegicus; mortality): 100 mg/kg-day
- NOAEL (Oryctolagus sp.): 7 mg/kg-day
- NOEC (Daphnia magna): 0.0125 mg/L
- LC50 (Lepomis macrochirus): 0.055 µg/mL (≈ 0.118 µM)
- LD50 (Apis mellifera): > 100 µg/piece
- LD50 (Colinus virginianus; acute, oral, mortality): 1780 mg/kg-day
- NOEC (Colinus virginianus; reproduction developmental): 60.4 mg/kg-day
- LC50 (Anas platyrhynchos): > 1230 mg/kg-day
- NOEC (Folsomia candida): < 1.57 mg/kg
- LR50 (Aphidius rhopalosiphi): > 200 g/ha
